This is an account of results in US5534535A, “Therapeutic nucleosides” (Burroughs Wellcome Co., priority 1992, dated 1996).

For orientation: IC50 means the concentration that gives 50% inhibition.

Read-outs that look alike come from different tables or passages of the source.

The test deals with HBV. The test can be described thus: Anti-HBV assay: HBV DNA in supernatants of HBV-producing cells (HepG2 2.2.15, P5A cell line), immunoaffinity capture, PCR and hybrid-capture detection. In kind it is cell-based, Hepatitis B virus. To be noted: table headed Anti-HCMV Activity. The procedure: Anti-HBV activity of compounds of formula (I) and (I-1) was determined with a high-capacity assay for assessing efficacy. Supernatants from growing HBV-producing cells (HepG2 2.2.15, P5A cell line) in 96-well plates are applied to microtiter plate wells which have been coated with a specific monoclonal antibody to HBV surface antigen (HBsAg). Virus particles present in the supernatants bind to the antibody and remain immobilized while other debris is removed by washing. These virus particles are then denatured to release HBV DNA strands which are subsequently amplified by the polymerase chain reaction and detected with a colorimetric hybrid-capture assay. Quantitation is achieved through fitting of a standard curve to dilutions of a cell supernatant with known HBV DNA content. By comparing HBV DNA levels of untreated control cell supernatants with supernatants containing a compound of formula (I) or (I-1), a measure of anti-HBV effectiveness is obtained.
HBV producer cells, 2500 cells/well, were seeded in 96-well culture dishes in RPMI/10% fetal bovine serum/2 mM glutamine (RPMI/10/2:). […] Twenty-five uL HBV standard media dilutions in RPMI/10/2 were added to 2 rows of wells to serve as an internal standard curve for quantitation, and the plates were sealed and incubated at 4° C. overnight. […]
Polymerase chain reaction (Saiki, R. K. et al., Science, 239 (4839) 487-91 (1988)) was carried out on 5 uL samples, using a Perkin Elmer PCR kit. […] Primers were chosen from conserved regions in the HBV genome, as determined by alignment of several sequences. […]
PCR products were detected with horse radish peroxidase-labeled oligonucleotide probes (Synthecell Corp., Rockville, Md. 20850), which hybridize to biotinylated strands of denatured PCR products directly in streptavidin-coated microtiter plate wells, using essentially the method of Holodiniy, M. et al., Bio Techniques, 12 (1)37-39 (1992). […] Quantities of HBV DNA present in the original samples were calculated by comparison with standards. […]

The mark [1] stands for this setting: Hepatitis B virus, HepG2 2.2.15, read-out: Anti-HBV activity, approximate IC50 (50 percent decrease in HBV DNA), HepG2 2.2.15, P5A cell line.

Consider `OC[C@@H]1C[C@@H](O)[C@H](n2c(Br)nc3cc(Cl)c(Cl)cc32)C1` (relative stereo) [Ex. 13, (±)-(1R*, 2R*, 4S*)-2-(2-Bromo-5,6-dichloro-1H-benzimidazol-1-yl)-4-(hydroxymethyl)cyclo-pentanol], for which, under setting [1], the IC50 worked out at 5000 nM. As to `OC[C@@H]1C[C@H](n2c(Br)nc3cc(Cl)c(Cl)cc32)[C@@H](O)[C@H]1O` [Ex. 69, (1R, 2S, 3S, 5S)-5-(2-Bromo-5,6-dichloro-1H-benzimidazol-1-yl)-3-(hydroxymethyl)-1,2-cyclopentanediol], the IC50 is, setting by setting: under setting [1], 720 nM; (read-out: Anti-HBV activity, approximate IC50 (50 percent decrease in HBV DNA), HepG2 2.2.15, P5A cell line) 1300 nM.
